Where a name gives a salt, the structure may show the parent alone. Read-outs that look alike come from different tables or passages of the source. Each block holds one compound with its values, some of them ahead of it.
How the values were obtained:
MiaPaCa-2 cells [1] = assay: Bru-seq analysis for nascent RNA synthesis; type: cell-based; settings: Bru-seq
Excerpt: A bromouridine labeled RNA sequencing (Bru-seq) technique was used to better characterize molecular mechanisms of these novel agents. Bru-seq is able to capture real-time synthesis of the nascent RNA, so as to provide information on global gene transcription without interference by RNA stability or biased gene selection (Paulsen et al., 2014, Paulsen et al., 2013). […] Profiling of all genes with >1.5-fold change in expression upon treatment of QD232 or QD325 identified NRF2-mediated oxidative stress response and unfolded protein response (UPR) as key pathways implicated in drug action (FIG. 8A).
Bru-seq analysis was performed as previously reported (Paulsen et al., 2014). Briefly, 4×10^6 MiaPaCa-2 cells were placed in 10 cm dishes on Day 1. On Day 2, cells were treated with DMSO, QD232 or QD325 for 4 h. Bromouridine was added into the media to label newly synthesized nascent RNA in the last 30 min of treatment to a final concentration of 2 mM. Cells were then collected in TRIZOL and total RNA was isolated. Bromouridine containing RNA population was further isolated and sent for sequencing. Sequencing reads were mapped to the HG19 reference genome. Pre-ranked gene lists were generated for each treatment through ranking genes by fold changes in gene synthesis levels compared with control, and analyzed with GSEA (Broad Institute, MA) (Subramanian et al., 2005, Mootha et al., 2003)

pancreatic cancer = settings: cited from earlier work
Panc-1 cells = assay: MTT cytotoxicity assay, Panc-1; type: cell-based; settings: Homo sapiens, three independent experiments
Procedure: (§1) MiaPaCa-2, Panc-1 and BxPC-3 pancreatic cancer cell lines were obtained from the ATCC. Normal pancreatic cells HPDE and HPNE were kindly provided (Translational Oncology Program, University of […], Ann Arbor, Mich.). Gemcitabine resistant cell line MiaPaCa-2-GR (gemcitabine resistant) was kindly provided (Department of Pathology, Wayne State University, Detroit, Mich.). All cell lines were cultured as monolayer and maintained in RPMI1640 supplemented with 10% fetal bovine serum (FBS) in a humidified atmosphere with 5% CO2 at 37° C. MiaPaCa-2-GR culture was supplemented with 200 nM gemcitabine.
(§2) Cytotoxicity of compounds was evaluated with 3-(4,5-dimethylthiazol-2-yl)-2,5-diphenyltetrazolium bromide (MTT) assay. Cells were placed in 96-well plate at 3000-8000 cells/well. After overnight attachment, compounds were added to the wells at sequential dilutions (30 nM-10 μM for most cell lines). After 72 h treatment, MTT was added into the media to a final concentration of 300 μg/mL. Cells were incubated for 3 h at 37° C., and the insoluble formazan converted by viable cells were dissolved in 150 μL of DMSO. Absorbance at 570 nm was read by microplate reader (Molecular devices, Sunnyvale, Calif.), and inhibition of cell proliferation was calculated using the following formula: Inhibition of cell proliferation (%)=(1−ODtreatment/ODcontrol)×100%

BxPC-3 cells = assay: MTT cytotoxicity assay, BxPC-3; type: cell-based; settings: Homo sapiens, three independent experiments
Procedure: as §1, §2

MiaPaCa-2 cells [2] = assay: MTT cytotoxicity assay, MiaPaCa-2; type: cell-based; settings: MTT assay; for IC50: Homo sapiens, Mean ± SD, three independent experiments; for cytotoxicity in presence of NAC: NAC 5 mM (FIG. 3C)
Procedure: as §1, §2

MiaPaCa-2 xenograft = MiaPaCa-2 xenograft studies; type: in vivo, NOD/SCID mice; settings: QD325 5 mg/kg five times a week; gemcitabine 15 mg/kg once a week; control 1503±189 mm^3
Procedure: MiaPaCa-2 cells (2.0×10^6) in a 100 μL suspension of RPMI1640 was injected subcutaneously into dorsal flank of 6-week NOD/SCID mice. Tumor size was monitored twice a week through caliper measurement using the following equation: V=d^2×D/2, where d represents width and D represents length of the tumor. In study 1, mice were randomly grouped (n=5 per group) when average tumor size reached 65 mm^3. Daily treatment was given at five days on two days off cycles. QD325 was given at 5 mg/kg in 100 μL vehicle (5% DMSO, 60% Propylene glycol, 35% Saline) by intraperitoneal injection. […] Unpaired t test was performed for data analysis and p<0.05 was considered significant. […] Procedures for study 2 with gemcitabine treatment are detailed in supplemental information.
On necropsy, tumors, hearts, kidneys, livers, lungs, spleens and pancreases were collected, fixed in 10% neutral buffered formalin, embedded in paraffin, and sectioned. Sections ([…]) were stained with hematoxylin and eosin to facilitate histologic examination. For Ki67 expression level, immunohistochemistry staining was performed on sections with Ki67 antibody. Embedding, sectioning and staining of samples were performed by ULAM pathology core for animal research at the University of Michigan. Representative images were taken on Olympus IX83 microscope with 20× magnification.

[3] = system: mtDNA content in MiaPaCa-2 cells; assay: Measurement of mtDNA content by qPCR; type: cell-based; settings: MiaPaCa-2, 6 h; 12S rRNA vs genomic 18S rRNA (FIG. 11B)
Procedure: To assess mtDNA content, genomic DNA was isolated with QIAamp® DNA mini kit (Qiagen, Germantown, Md.) from MiaPaCa-2 cells. The mtDNA content was evaluated by co-amplifying a DNA fragment encoding mitochondrial 12S rRNA (forward primer: 5′-[…]-3′; reverse primer: 5′-TGCGCTTACTTTGTAG CCTTCAT-3′) and a DNA fragment encoding the nuclear 18S rRNA (forward primer: 5′-CCCTGCC CTTTGTACACACC-3′; reverse primer: 5′-GATCCGAGGGCCTCACTA-3′). (Vadrot et al., 2012) Real-time qPCR was performed on Viia7 cycler (Applied Biosystems). Amplifications were monitored and analyzed by measuring the intercalation of the fluorescent dye from Fast SYBR® Green Master Mix (Applied Biosystems). Relative mtDNA contents were calculated using 18S rRNA as gene reference.

MiaPaCa-2 cells [4] = assay: ROS detection assay (H2DCFDA probe); type: cell-based; settings: for ROS induction after NAC pretreatment: NAC 5 mM for 30 min pretreatment (FIG. 3B); for ROS induction compared with lead compound QD232: MiaPaCa-2, 24 h treatment, 10 μM (FIG. 1C)
Procedure: To quantify ROS induction by redox modulators, a high throughput ROS assay in 384-well plates using H2DCFDA as the ROS detection probe was developed (FIG. 1A).
Cells were detached by 0.05% trypsin-EDTA, neutralized, centrifuged (1200 rpm, 5 min) and resuspended in cell culture media. Suspension were then treated with 20 μM cell permeable H2DCFDA for 30 min at 37° C. Cells were then centrifuged (1200 rpm, 5 min) and washed with cell culture media to remove excess probe. After washing, cells were placed in black-wall 384-well plate at 20,000 cells/well, incubated for 30 min and treated by compounds at designated conditions. Fluorescent signal were then read at 493 nm/523 nm on BioTek H1 plate reader for ROS detection.

[5] = metastatic pancreatic cancer, gemcitabine group vs FOLFIRINOX group (Conroy et al., 2011)
[6] = PANC-1, 72 h, Table 1, 72 h, Mean ± SD
[7] = BXPC-3, 72 h, Table 1, 72 h, Mean ± SD
[8] = MIA PaCa-2, 72 h, Table 1, 72 h
[9] = PANC-1, Table 2, Mean ± SD, read-out: IC 50 Panc-1
[10] = BXPC-3, Table 2, Mean ± SD, read-out: IC 50 BxPC-3
[11] = MIA PaCa-2, Table 2, read-out: IC 50 MiaPaCa-2

Compound: CC[C@@]1(O)C(=O)OCc2c1cc1n(c2=O)Cc2cc3ccccc3nc2-1 [camptothecin, reference compound]
transcription of mtDNA from mitochondrial promoters HSP2 and LSP on D-loop (MiaPaCa-2 cells [1]): no such effect was observed

Compound: Nc1ccn([C@@H]2O[C@H](CO)[C@@H](O)C2(F)F)c(=O)n1 [Gemcitabine, 2′-deoxy-2′, 2′-difluorocytidine monohydrochloride (b-isomer), reference compound]
median overall survival (pancreatic cancer; [5]): 6.8 months
median overall survival (pancreatic cancer; pancreatic cancer patients, addition of nab-paclitaxel to gemcitabine (Von Hoff et al., 2013)): 6.7 months
IC50 (Panc-1 cells; [6]): 0.2 ± 0.1 µM
IC50 (BxPC-3 cells; [7]): 0.05 ± 0.02 µM
IC50 (MiaPaCa-2 cells [2]; [8]): 0.11 ± 0.07 µM
average tumor size at the end of the 48-day treatment period (MiaPaCa-2 xenograft): 387±74 mm^3

Compound: OO [H2O2, reference compound]
cytotoxicity in presence of NAC (MiaPaCa-2 cells [2]; 72 h): decreased cytotoxicity
mtDNA content 6 hours after treatment [3]: small but significant decrease in mtDNA content
ROS induction after NAC pretreatment (MiaPaCa-2 cells [4]; MiaPaCa-2): blocked

Compound: FOLFIRINOX
median overall survival (pancreatic cancer; [5]): 11.1 months

melting point: 232 °C
Compound: CCc1ccc(-c2ccc(NC3=CC(=O)c4ncncc4C3=O)cc2)cc1 [QD335, 6-((4′-ethyl-[1,1′-biphenyl]-4-yl)amino)quinazoline-5,8-dione]
IC50 (Panc-1 cells; [6]): 1.2 ± 0.1 µM
IC50 (Panc-1 cells; [9]): 1.2 ± 0.1 µM
IC50 (BxPC-3 cells; [7]): 3.1 ± 0.7 µM
IC50 (BxPC-3 cells; [10]): 3.1 ± 0.7 µM
IC50 (MiaPaCa-2 cells [2]; [8]): 2 ± 0.1 µM
IC50 (MiaPaCa-2 cells [2]; [11]): 2 ± 0.1 µM
ROS induction compared with lead compound QD232 (MiaPaCa-2 cells [4]): significantly higher ROS induction than the lead compound QD232

melting point: 161 to 162 °C
Compound: COc1cc(NC2=CC(=O)c3ncncc3C2=O)cc(OC)c1OC [QD326, 6-((3,4,5-trimethoxyphenyl)amino)quinazoline-5,8-dione]
IC50 (Panc-1 cells; [6]): 0.8 ± 0.1 µM
IC50 (Panc-1 cells; [9]): 0.8 ± 0.1 µM
IC50 (BxPC-3 cells; [7]): 1.6 ± 0.3 µM
IC50 (BxPC-3 cells; [10]): 1.6 ± 0.3 µM
IC50 (MiaPaCa-2 cells [2]; [8]): 1.5 ± 0.1 µM
IC50 (MiaPaCa-2 cells [2]; [11]): 1.5 ± 0.1 µM
cytotoxicity in presence of NAC (MiaPaCa-2 cells [2]; 72 h): decreased cytotoxicity
ROS induction compared with lead compound QD232 (MiaPaCa-2 cells [4]): significantly higher ROS induction than the lead compound QD232
accumulation of ROS (MiaPaCa-2 cells [4]; MiaPaCa-2, 10, 3.3 or 1.1 μM (FIG. 3A)): time- and dose-dependent accumulation of ROS
ROS accumulation at 10 and 3.3 μM (MiaPaCa-2 cells [4]; MiaPaCa-2, 10 and 3.3 μM): rapid and high ROS accumulation
ROS induction after NAC pretreatment (MiaPaCa-2 cells [4]; MiaPaCa-2): inhibited

melting point: 223 °C
Compound: Nc1cccc(C(=O)NCCC[P+](c2ccccc2)(c2ccccc2)c2ccccc2)c1.[Br-] [QD358, (3-(3-aminobenzamido)propyl)triphenylphosphonium bromide]
IC50 (Panc-1 cells; [6]): > 30 µM
IC50 (Panc-1 cells; [9]): > 30 µM
IC50 (BxPC-3 cells; [10]): > 30 µM
IC50 (MiaPaCa-2 cells [2]; [11]): > 30 µM

melting point: 206 to 207 °C
Compound: CCOC(=O)c1ccc(NC2=CC(=O)c3ncncc3C2=O)cc1 [QD332, Ethyl 4-((5,8-dioxo-5,8-dihydroquinazolin-6-yl)amino)benzoate]
IC50 (Panc-1 cells; [6]): 1.6 ± 0.3 µM
IC50 (Panc-1 cells; [9]): 1.6 ± 0.3 µM
IC50 (BxPC-3 cells; [7]): 5.9 ± 0.1 µM
IC50 (BxPC-3 cells; [10]): 5.9 ± 0.1 µM
IC50 (MiaPaCa-2 cells [2]; [8]): 5.5 ± 1.5 µM
IC50 (MiaPaCa-2 cells [2]; [11]): 5.5 ± 1.5 µM

From patent US10781183B2, “Small molecule inducers of reactive oxygen species and inhibitors of mitochondrial activity” (The Regents of the University of Michigan, priority 2016, dated 2020)
